Consider one molecule from patent US10294228B2, “Breathing control modulating compounds, and methods of making and using same” (NEURAD LTD., priority 2015, dated 2019).

Where a name gives a salt, the structure may show the parent alone.

One experiment deals with anesthetized rats. The experiment in a line: Anesthetized rat spirometry screening assay (ventilatory activity, minute volume). It is filed as in vivo. The note with it: 0.3 mg/kg IV bolus, increase in minute volume (VE), read-out: VE % Inc @ 0.3 mg/kg IV. An outline of the steps: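 Urethane-anesthetized (1.5 g/kg i.v.) rats with tracheal cannula to pneumotachometer; minute volume derived from respiratory rate × tidal volume. Compounds given as i.v. bolus at 0.1 and/or 0.3 and/or 3 mg/kg, monitored at least 6 min; data as 30 s averages.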

Experiment [1] has as its system morphine-tolerant rats (CSA model). Description: Apnea hypopnea index and ventilation during sleep in rats receiving chronic morphine (CSA model). The experiment is classed as in vivo, rat. As to conditions: 10 mg/kg PO, FIG. 15. The procedure: Central sleep apnea (CSA) and hypopnea are especially prevalent in people on chronic opioid therapy. Accordingly, a novel rodent model of chronic opioid-induced sleep disordered breathing that mimics many features of the condition in people was developed.
Morphine was administered chronically to rats in their drinking water at a dose and duration that elicited morphine tolerance. Morphine sulfate was added to the drinking water of individually housed rats beginning at 0.1 mg/ml morphine and increasing the concentration in increments so that a final concentration of 0.6 mg/ml was achieved within 2 weeks of beginning morphine exposure. During the first three weeks after starting morphine administration, rats were acclimated to whole body plethysmography chambers.
Respiratory rate (fR), tidal volume (VT), minute volume (VE), and CSA and hypopnea frequency and length (i.e., duration of each apnea) were measured continuously while animals were unrestrained in whole-body plethysmography chambers. Animals breathed room air for the duration of the study, except where indicated for the hyperoxia validation study. […]
A respiratory waveform was generated from the expansion and contraction of the air that was exchanged between the animal and the chamber. […] The airflow signal was amplified and continuously recorded using PowerLab and LabChart 7.0. […]

Consider `CCCNc1nc(NC)nc2c(NCC(C)(C)O)nc(NC)nc12` [Compound 31a, 1-(2,6-Bis-methylamino-8-propylamino-pyrimido[5,4-d]pyrimidin-4-ylamino)-2-methyl-propan-2-ol Hydrochloride], for which the change in vivo at 0.3 mg/kg in the experiment with anesthetized rats was determined as 69%. Moreover, in experiment [1], the apnea-hypopnea index entry is recorded as “reduces” and the minute volume entry is on record as “without significantly increasing”.
